“And” between values parts separate entries of the source, which are not always exact repeats. Identical values can stand only once.
Key:
[1] = Boiling temperature at pressure P; details: Liquid, Distillation
[2] = Liquid, Diaphragm manometer

C[Si](C)(C)NCc1ccccc1 [(benzylamino)trimethylsilane]
Details | Boiling temperature at pressure P [°C]
[1], 2 kPa | 98.00

C[Si](C)(C)Nc1ccccc1 [trimethyl(phenylamino)silane]
Details | Boiling temperature at pressure P [°C] | vapor or sublimation pressure [kPa]
[1], 0.4 kPa | 56.00 | –
[2], 311.6 K | – | 0.2
[2], 312.8 K | – | 0.24
[2], 332.5 K | – | 0.65
[2], 350.9 K | – | 1.64
[2], 371.8 K | – | 3.76
[2], 372.1 K | – | 3.79
[2], 390 K | – | 7.38
[2], 391.4 K | – | 7.86
[2], 391.6 K | – | 7.85
[2], 410.6 K | – | 14.88
[2], 411.6 K | – | 15.98
[2], 421.7 K | – | 21.19
[2], 422.7 K | – | 22.43
[2], 431.8 K | – | 28.53
[2], 432.7 K | – | 30.61
[2], 446.1 K | – | 43.07
[2], 452.1 K | – | 52.87
[2], 455.2 K | – | 55.6

C[Si](C)(C)N(c1ccccc1)[Si](C)(C)C [N,N-bis(trimethylsilyl)aniline]
Details | Boiling temperature at pressure P [°C] | vapor or sublimation pressure
[1], 0.267 kPa | 60.00 | –
[2], 321.8 K | – | 0.15 kPa
[2], 322.1 K | – | 0.2 kPa
[2], 330.7 K | – | 0.29 kPa
[2], 331.2 K | – | 0.24 kPa
[2], 331.4 K | – | 0.26 kPa
[2], 341.9 K | – | 0.36 kPa
[2], 351.2 K | – | 0.59 kPa and 0.61 kPa
[2], 351.4 K | – | 0.59 kPa
[2], 361.1 K | – | 0.96 kPa
[2], 361.2 K | – | 1 kPa
[2], 371.2 K | – | 1.56 kPa
[2], 380.7 K | – | 2.34 kPa
[2], 381.2 K | – | 2.32 kPa
[2], 390.9 K | – | 3.54 kPa
[2], 400.5 K | – | 5.22 kPa
[2], 400.7 K | – | 5.19 kPa
[2], 400.9 K | – | 5.65 kPa
[2], 410.7 K | – | 7.51 kPa
[2], 411 K | – | 7.35 kPa
[2], 421.4 K | – | 10.96 kPa
[2], 421.5 K | – | 10.91 kPa
[2], 421.9 K | – | 10.9 kPa
[2], 431.7 K | – | 15.13 kPa
[2], 441.2 K | – | 20.51 kPa
[2], 441.6 K | – | 20.37 kPa
[2], 451.2 K | – | 27.3 kPa

C[Si](C)(C)c1ccccc1 [trimethylphenylsilane]
Details | Boiling temperature at pressure P [°C] | vapor or sublimation pressure [kPa]
[1], 1.866 kPa | 56.00 | –
[2], 296.7 K | – | 0.33
[2], 297.7 K | – | 0.29
[2], 298.8 K | – | 0.31
[2], 322.2 K | – | 1.14
[2], 322.7 K | – | 1.28
[2], 333.2 K | – | 2.02
[2], 343.7 K | – | 3.24
[2], 352.2 K | – | 4.73
[2], 352.8 K | – | 4.91
[2], 371.9 K | – | 10.63
[2], 372.2 K | – | 11.04
[2], 373.2 K | – | 10.82
[2], 382.9 K | – | 15.75
[2], 391 K | – | 21.76
[2], 392.1 K | – | 21.75
[2], 392.4 K | – | 22.02
[2], 401.1 K | – | 29.35

C[Si](C)(C)N[Si](C)(C)C [1,1,1,3,3,3-hexamethyldisilazane]
[2]
Details | vapor or sublimation pressure [kPa]
290.8 K | 1.51
290.9 K | 1.54
292 K | 1.68
293.5 K | 1.73
301.1 K | 2.71
301.5 K | 2.68
311.4 K | 4.25
312.4 K | 4.36
320.2 K | 5.93
321.2 K | 6.6
329.7 K | 9.72
330.9 K | 10.21
331.8 K | 10.3
340.1 K | 14.79
341.1 K | 15.35
349.8 K | 20.68
352.7 K | 23.41
360.3 K | 30.3
360.5 K | 31.34
370 K | 42.85
371.8 K | 45.32
382.2 K | 59.76
